Where two headings read alike, the source gives them in different places. A value given as a limit tells only on which side of the number the result lay.

For assay [1], the target named is T1, JAK2 (Homo sapiens, UniProt O60674).
T1 construct: host or cells: baculovirus expression system
Briefly: Recombinant Human JAK2 Kinase Assay (TRF). In kind it is biochemical. To be noted: read-out: JAK2 Potency. An outline of the steps: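 TRF read-out: Eu-N1 PY100 anti-phosphotyrosine antibody detects product. Enzyme is baculovirus-expressed JAK2 at 15 ng/ml; substrate is a biotinyl 15-mer peptide bound to Neutravidin-coated wells. Buffer 20 mM HEPES pH 7.2, 0.2 μM ATP, 1 mM MnCl2, 0.1% BSA, 2.5% DMSO final; 20 min, RT.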

Assay [2] concerns the target T2, ALK (Homo sapiens, UniProt Q9UM73).
T2 construct: host or cells: baculovirus expression system
Briefly: ALK Kinase Assay (ELISA/TRF, PLC-γ substrate). The note with it: read-out: ALK Potency. In kind it is biochemical. An outline of the steps:
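Wells were coated with 10 μg/mL phospholipase C-γ substrate in TBS, and the reaction was started by adding 30 ng/ml ALK enzyme and run at 37° C for 15 minutes. Phosphorylated product was detected with Eu-N1-labeled PT66 antibody, and IC50 values came from sigmoidal variable-slope fits of percent inhibition against log concentration.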
Background: ELISA stands for enzyme-linked immunosorbent assay.

Setting [3] is: JAK2 kinase inhibition, 0.2 μM ATP.
[4] abbreviates: ALK kinase inhibition, 1 μM ATP.

T1 sequence (O60674 whole entry): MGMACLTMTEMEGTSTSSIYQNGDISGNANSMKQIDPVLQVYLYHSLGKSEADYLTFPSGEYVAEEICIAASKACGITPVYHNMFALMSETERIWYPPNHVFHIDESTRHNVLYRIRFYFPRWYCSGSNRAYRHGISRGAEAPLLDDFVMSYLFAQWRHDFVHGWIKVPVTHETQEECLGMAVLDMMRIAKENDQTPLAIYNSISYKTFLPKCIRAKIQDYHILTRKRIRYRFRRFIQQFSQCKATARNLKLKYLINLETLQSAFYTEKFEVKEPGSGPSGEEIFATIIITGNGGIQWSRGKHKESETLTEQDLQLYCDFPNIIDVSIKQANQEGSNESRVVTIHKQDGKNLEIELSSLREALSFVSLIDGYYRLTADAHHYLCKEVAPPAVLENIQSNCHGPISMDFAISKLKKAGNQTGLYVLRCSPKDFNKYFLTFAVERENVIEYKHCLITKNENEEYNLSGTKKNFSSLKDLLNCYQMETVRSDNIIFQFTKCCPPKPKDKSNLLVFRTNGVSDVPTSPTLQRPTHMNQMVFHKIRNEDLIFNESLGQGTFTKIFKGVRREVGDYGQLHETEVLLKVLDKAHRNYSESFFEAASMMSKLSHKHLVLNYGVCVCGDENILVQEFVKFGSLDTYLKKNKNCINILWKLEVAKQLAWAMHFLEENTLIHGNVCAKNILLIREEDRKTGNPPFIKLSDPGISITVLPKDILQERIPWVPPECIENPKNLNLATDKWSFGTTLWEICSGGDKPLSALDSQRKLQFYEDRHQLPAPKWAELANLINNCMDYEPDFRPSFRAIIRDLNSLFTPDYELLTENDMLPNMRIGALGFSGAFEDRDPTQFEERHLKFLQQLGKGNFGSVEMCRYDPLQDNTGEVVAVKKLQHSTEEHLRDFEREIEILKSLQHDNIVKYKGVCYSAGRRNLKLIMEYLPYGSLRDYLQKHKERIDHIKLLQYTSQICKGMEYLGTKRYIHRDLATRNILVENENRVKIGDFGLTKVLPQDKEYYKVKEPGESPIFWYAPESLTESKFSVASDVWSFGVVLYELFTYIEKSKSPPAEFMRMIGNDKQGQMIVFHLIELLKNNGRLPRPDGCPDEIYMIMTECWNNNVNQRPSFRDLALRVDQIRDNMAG
T2 sequence (Q9UM73 19-1620): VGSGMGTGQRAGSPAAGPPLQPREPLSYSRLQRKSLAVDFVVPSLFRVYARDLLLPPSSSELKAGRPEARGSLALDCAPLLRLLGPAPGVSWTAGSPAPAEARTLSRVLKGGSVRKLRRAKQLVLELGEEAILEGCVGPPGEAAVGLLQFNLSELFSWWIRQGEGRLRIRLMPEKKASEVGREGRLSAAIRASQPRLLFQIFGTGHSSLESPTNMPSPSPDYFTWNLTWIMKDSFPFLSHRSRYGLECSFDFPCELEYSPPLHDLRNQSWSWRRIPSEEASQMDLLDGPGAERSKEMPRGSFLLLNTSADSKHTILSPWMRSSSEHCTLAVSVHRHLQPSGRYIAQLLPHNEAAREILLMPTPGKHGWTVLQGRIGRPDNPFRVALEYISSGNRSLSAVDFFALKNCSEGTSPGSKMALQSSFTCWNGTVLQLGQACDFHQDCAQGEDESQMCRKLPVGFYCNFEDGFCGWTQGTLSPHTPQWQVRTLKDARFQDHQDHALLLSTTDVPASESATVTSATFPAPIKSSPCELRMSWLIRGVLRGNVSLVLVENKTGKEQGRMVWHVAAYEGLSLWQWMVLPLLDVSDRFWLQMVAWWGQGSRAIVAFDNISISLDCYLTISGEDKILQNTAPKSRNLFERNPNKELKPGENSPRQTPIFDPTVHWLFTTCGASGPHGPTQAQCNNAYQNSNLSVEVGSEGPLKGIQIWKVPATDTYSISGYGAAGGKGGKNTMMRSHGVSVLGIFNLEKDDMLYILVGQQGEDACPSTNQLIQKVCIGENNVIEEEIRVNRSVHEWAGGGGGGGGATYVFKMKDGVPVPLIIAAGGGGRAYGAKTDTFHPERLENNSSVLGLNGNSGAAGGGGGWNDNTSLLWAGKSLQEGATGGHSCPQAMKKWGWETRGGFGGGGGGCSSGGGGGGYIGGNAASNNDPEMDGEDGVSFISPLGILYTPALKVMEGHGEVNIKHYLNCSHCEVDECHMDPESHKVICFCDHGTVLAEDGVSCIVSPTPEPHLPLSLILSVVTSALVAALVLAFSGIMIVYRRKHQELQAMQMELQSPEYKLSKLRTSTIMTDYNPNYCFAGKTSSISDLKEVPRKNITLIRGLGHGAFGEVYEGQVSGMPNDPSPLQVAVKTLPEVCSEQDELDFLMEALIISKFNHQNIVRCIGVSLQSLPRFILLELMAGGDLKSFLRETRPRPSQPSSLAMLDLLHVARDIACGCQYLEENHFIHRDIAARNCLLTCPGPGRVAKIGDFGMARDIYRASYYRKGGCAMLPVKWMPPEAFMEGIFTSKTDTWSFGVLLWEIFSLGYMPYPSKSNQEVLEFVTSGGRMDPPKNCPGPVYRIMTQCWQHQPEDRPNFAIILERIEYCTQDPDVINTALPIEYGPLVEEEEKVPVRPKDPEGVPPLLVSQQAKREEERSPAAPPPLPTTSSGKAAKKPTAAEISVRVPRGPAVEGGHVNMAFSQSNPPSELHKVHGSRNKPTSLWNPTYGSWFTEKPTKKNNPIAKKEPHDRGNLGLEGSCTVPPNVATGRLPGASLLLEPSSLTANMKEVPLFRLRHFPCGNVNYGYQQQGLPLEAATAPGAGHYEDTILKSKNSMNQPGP

Turning to `CN1CCN(C(=O)C(F)(F)c2ccc(Nc3ncc4ccc(-c5cccc(S(=O)(=O)NC(C)(C)C)c5)n4n3)cc2)CC1` [Example 1515, N-tert-Butyl-3-(2-{4-[1,1-difluoro-2-(4-methyl-piperazin-1-yl)-2-oxo-ethyl]-phenylamino}-pyrrolo[2,1-f][1,2,4]triazin-7-yl)-benzenesulfonamide], the IC50 in assay [1] (JAK2 Kinase Inhibition) was below 100 nM; in assay [2] (ALK Kinase Inhibition), 100 to 1000 nM.
Take `CS(=O)(=O)N1CC=C(c2ccc3cnc(Nc4ccc(N5CCOCC5)cc4)nn23)CC1` [Example 1129, [7-(1-Methanesulfonyl-1,2,3,6-tetrahydro-pyridin-4-yl)-pyrrolo[2,1-f][1,2,4]triazin-2-yl]-(4-morpholin-4-yl-phenyl)-amine]: the IC50 was below 100 nM in assay [1] (setting [3]) and 1000 to 10000 nM in assay [2] (setting [4]).
In the same order, the values of `CN1CCN(c2cccc(Nc3ncc4ccc(-c5cnn(S(C)(=O)=O)c5)n4n3)c2)CC1` [Example 950, [7-(1-Methanesulfonyl-1H-pyrazol-4-yl)-pyrrolo[2,1-f][1,2,4]triazin-2-yl]-[3-(4-methyl-piperazin-1-yl)-phenyl]-amine] are below 100 nM and 100 to 1000 nM.
As for `COc1ccc(Cl)cc1-c1ccc2cnc(Nc3ccc(N4CCOCC4)cc3)nn12` [Example 3, [7-(5-Chloro-2-methoxy-phenyl)-pyrrolo[2,1-f][1,2,4]triazin-2-yl]-(4-morpholin-4-yl-phenyl)-amine], the figures for the IC50 in assay [1] (JAK2 Kinase Inhibition) and in assay [2] (ALK Kinase Inhibition) were below 100 nM and 100 to 1000 nM, respectively.
As to `CNC(=O)CN1CCC(c2ccc(Nc3ncc4ccc(-c5ccccc5N(C)S(C)(=O)=O)n4n3)c(OC)c2)CC1` [Example 870, 2-[4-(4-{7-[2-(Methanesulfonyl-methyl-amino)-phenyl]-pyrrolo[2,1-f][1,2,4]triazin-2-ylamino}-3-methoxy-phenyl)-piperidin-1-yl]-N-methyl-acetamide], the values for the IC50 in assay [1] (setting [3]) and in assay [2] (setting [4]) were 100 to 1000 nM and below 100 nM, respectively.
For `CN1CCN(c2ccc(Nc3ncc4ccc(-c5cnn(C)c5)n4n3)cc2F)CC1` [Example 1215, [3-Fluoro-4-(4-methyl-piperazin-1-yl)-phenyl]-[7-(1-methyl-1H-pyrazol-4-yl)-pyrrolo[2,1-f][1,2,4]triazin-2-yl]-amine], the IC50 in assay [1] (setting [3]) is below 100 nM; in assay [2] (setting [4]) it was 100 to 1000 nM.
In the same order, the values of `COc1cc(C2CCN(C(=O)C(C)(C)N)CC2)ccc1Nc1ncc2ccc(-c3ccccc3N(C)S(C)(=O)=O)n2n1` [Example 822, N-[2-(2-{4-[1-(2-Amino-2-methyl-propionyl)-piperidin-4-yl]-2-methoxy-phenylamino}-pyrrolo[2,1-f][1,2,4]triazin-7-yl)-phenyl]-N-methyl-methanesulfonamide] are 100 to 1000 nM and below 100 nM.
In the same order, the values of `COc1cc2c(cc1Nc1ncc3ccc(-c4ccccc4OC)n3n1)CN(C(C)C)C2` [Example 877, (2-Isopropyl-6-methoxy-2,3-dihydro-1H-isoindol-5-yl)-[7-(2-methoxy-phenyl)-pyrrolo[2,1-f][1,2,4]triazin-2-yl]-amine] are below 100 nM and below 100 nM.
Regarding `COc1cc(N2CCN(C)CC2)ccc1Nc1ncc2ccc(-c3cccnc3OC)n2n1` [Example 34, [2-Methoxy-4-(4-methyl-piperazin-1-yl)-phenyl]-[7-(2-methoxy-pyridin-3-yl)-pyrrolo[2,1-f][1,2,4]triazin-2-yl]-amine], the IC50 in assay [1] (JAK2 Kinase Inhibition) and in assay [2] (ALK Kinase Inhibition) was below 100 nM throughout.
As for `COc1ccccc1-c1ccc2cnc(Nc3ccc(C4CC5CCC(C4)N5C)cc3)nn12` (stereo not shown) [Example 945, [7-(2-Methoxy-phenyl)-pyrrolo[2,1-f][1,2,4]triazin-2-yl]-[4-(8-methyl-8-azabicyclo[3.2.1]oct-3-yl)-phenyl]-amine], the IC50 in assay [1] (setting [3]) and in assay [2] (setting [4]) was below 100 nM throughout.
As to `CN1CCC(c2ccc(Nc3ncc4ccc(-c5cccc(S(=O)(=O)NC6CC6)c5)n4n3)cc2)CC1` [Example 906, N-Cyclopropyl-3-{2-[4-(1-methyl-piperidin-4-yl)-phenylamino]-pyrrolo[2,1-f][1,2,4]triazin-7-yl}-benzenesulfonamide], the IC50 in assay [1] (setting [3]) and in assay [2] (setting [4]) was below 100 nM throughout.
`CN1CCOc2ccc(Nc3ncc4ccc(-c5cccnc5)n4n3)cc21` [Example 642, (4-Methyl-3,4-dihydro-2H-benzo[1,4]oxazin-6-yl)-(7-pyridin-3-yl-pyrrolo[2,1-f][1,2,4]triazin-2-yl)-amine]: the values for the IC50 in assay [1] (setting [3]) and in assay [2] (setting [4]) were below 100 nM and 1000 to 10000 nM, respectively.
For `COc1cc(C2CCN(C(=O)CN)CC2)ccc1Nc1ncc2ccc(-c3ccccc3OC)n2n1` [Example 823, 2-Amino-1-(4-{3-methoxy-4-[7-(2-methoxy-phenyl)-pyrrolo[2,1-f][1,2,4]triazin-2-ylamino]-phenyl}-piperidin-1-yl)-ethanone], in that order: 100 to 1000 nM and below 100 nM.
Turning to `c1ccc(Sc2ccc3cnc(Nc4ccc(N5CCOCC5)cc4)nn23)cc1` [Example 97, (4-Morpholin-4-yl-phenyl)-(7-phenylsulfanyl-pyrrolo[2,1-f][1,2,4]triazin-2-yl)-amine], the IC50 was below 100 nM in assay [1] (JAK2 Kinase Inhibition) and 100 to 1000 nM in assay [2] (ALK Kinase Inhibition).
In the same order, the values of `CN1CCN(c2cccc(Nc3ncc4ccc(-c5cccc(Cl)c5)n4n3)c2)CC1` [Example 161, [7-(3-Chloro-phenyl)-pyrrolo[2,1-f][1,2,4]triazin-2-yl]-[3-(4-methyl-piperazin-1-yl)-phenyl]-amine] are below 100 nM and 100 to 1000 nM.
Turning to `CN1CCOc2ccc(Nc3ncc4ccc(-c5cccc(NS(C)(=O)=O)c5)n4n3)cc21` [Example 643, N-{3-[2-(4-Methyl-3,4-dihydro-2H-benzo[1,4]oxazin-6-ylamino)-pyrrolo[2,1-f][1,2,4]triazin-7-yl]-phenyl}methanesulfonamide], the values for the IC50 in assay [1] (setting [3]) and in assay [2] (setting [4]) were below 100 nM and 100 to 1000 nM, respectively.
With `COc1cc([C@@H]2CCN(C(=O)OC(C)(C)C)C[C@@H]2O)ccc1Nc1ncc2ccc(-c3ccccc3OC)n2n1` (racemic) [Example 834, (±)-(3R,4S)-3-Hydroxy-4-{3-methoxy-4-[7-(2-methoxy-phenyl)-pyrrolo[2,1-f][1,2,4]triazin-2-ylamino]-phenyl}-piperidine-1-carboxylic acid tert-butyl ester], the IC50 in assay [1] (setting [3]) and in assay [2] (setting [4]) was 100 to 1000 nM in each case.
Regarding `CN1CCN(C)C(c2cccc(Nc3ncc4ccc(-c5ccc(S(C)(=O)=O)cc5)n4n3)c2)C1=O` (stereo not shown) [Example 1084, 3-{3-[7-(4-Methanesulfonyl-phenyl)-pyrrolo[2,1-f][1,2,4]triazin-2-ylamino]-phenyl}-1,4-dimethyl-piperazin-2-one], the IC50 in assay [1] (setting [3]) was below 100 nM; in assay [2] (setting [4]), above 10000 nM.
As for `COCCN1CCc2ccc(Nc3ncc4ccc(-c5ccccc5S(=O)(=O)N(C)C)n4n3)cc2CC1` [Example 31, 2-{2-[3-(2-Methoxy-ethyl)-2,3,4,5-tetrahydro-1H-benzo[d]azepin-7-ylamino]-pyrrolo[2,1-f][1,2,4]triazin-7-yl}-N,N-dimethyl-benzenesulfonamide], the IC50 is below 100 nM in assay [1] (JAK2 Kinase Inhibition) and 100 to 1000 nM in assay [2] (ALK Kinase Inhibition).
In the same order, the values of `c1cc2cnc(Nc3ccc(N4CCOCC4)cc3)nn2c1` [Example 50, (4-Morpholin-4-yl-phenyl)-pyrrolo[2,1-f][1,2,4]triazin-2-yl-amine] are below 100 nM and above 10000 nM.
In the same order, the values of `COc1cc(N2CCN(C)CC2)ccc1Nc1ncc2ccc(-c3cccc(S(C)(=O)=O)c3)n2n1` [Example 76, [7-(3-Methanesulfonyl-phenyl)-pyrrolo[2,1-f][1,2,4]triazin-2-yl]-[2-methoxy-4-(4-methyl-piperazin-1-yl)-phenyl]-amine] are below 100 nM and below 100 nM.
Take `CN1CCN(Cc2nc3cc(Nc4ncc5ccc(-c6cccc(S(C)(=O)=O)c6)n5n4)ccc3[nH]2)CC1` [Example 1538, [7-(3-Methanesulfonyl-phenyl)-pyrrolo[2,1-f][1,2,4]triazin-2-yl]-[2-(4-methyl-piperazin-1-ylmethyl)-1H-benzimidazol-5-yl]-amine]: the IC50 was below 100 nM in assay [1] (JAK2 Kinase Inhibition) and 100 to 1000 nM in assay [2] (ALK Kinase Inhibition).
Consider `COc1cc(Nc2ncc3ccc(-c4ccccc4N(C)S(C)(=O)=O)n3n2)ccc1C1CCN(C)CC1` [Example 913, N-(2-{2-[3-Methoxy-4-(1-methyl-piperidin-4-yl)-phenylamino]-pyrrolo[2,1-f][1,2,4]triazin-7-yl}-phenyl)-N-methyl-methanesulfonamide], for which the IC50 in assay [1] (setting [3]) and in assay [2] (setting [4]) was below 100 nM each time.
As for `C[C@@H](O)CN1CCN(c2ccc(Nc3ncc4ccc(-c5cccc(S(=O)(=O)NC(C)(C)C)c5)n4n3)cc2)CC1` [Example 426, N-tert-Butyl-3-(2-{4-[4-((R)-2-hydroxy-propyl)-piperazin-1-yl]-phenylamino}-pyrrolo[2,1-f][1,2,4]triazin-7-yl)-benzenesulfonamide], the IC50 was below 100 nM in assay [1] (JAK2 Kinase Inhibition) and 100 to 1000 nM in assay [2] (ALK Kinase Inhibition).
Turning to `COc1cc(N2CCC(N3CC[C@H](O)C3)CC2)ccc1Nc1ncc2ccc(-c3ccccc3OC)n2n1` [Example 483, (S)-1-(1-{3-Methoxy-4-[7-(2-methoxy-phenyl)-pyrrolo[2,1-f][1,2,4]triazin-2-ylamino]-phenyl}-piperidin-4-yl)-pyrrolidin-3-ol], the IC50 was 100 to 1000 nM in assay [1] (setting [3]) and below 100 nM in assay [2] (setting [4]).
On to `CC1(C)CCC(=O)Nc2cc(Nc3ncc4cc5ccccc5n4n3)ccc21` [Example 265, 5,5-Dimethyl-8-([1,2,4]triazino[1,6-a]indol-2-ylamino)-1,3,4,5-tetrahydro-benzo[b]azepin-2-one], for which the results for the IC50 in assay [1] (JAK2 Kinase Inhibition) and in assay [2] (ALK Kinase Inhibition) were below 100 nM and above 10000 nM, respectively.

Source of the values: patent publication US8471005B2 (Cephalon, Inc., priority 2008, dated 2013).
